One assay deals with Candida albicans. Put plainly: minimum fungicidal concentration (MFC), microbroth dilution assay, Candida albicans. Type of assay: cell-based. Particulars: 24 h. As for the experimental part:
(§1) The antifungal properties may be illustrated with the minimum fungicidal concentration (MFC) determinations against certain Candida organisms in a microbroth dilution assay carried out in Yeast Nitrogen Base (Difco) with 1 percent dextrose (YNBD). In carrying out the assay, Compound I was solubilized in 10 percent dimethyl sulfoxide (DMSO) and diluted to 2560 μg/ml. The compound was then diluted to 256 μg/ml in YNBD. 0.15 ml of the suspension was dispensed to the top row of a 96-well plate (each well containing 0.15 ml of YNDB) resulting in a drug concentration of 128 μg/ml. Two-fold dilutions were then made from the top row to obtain final drug concentrations ranging from 128 to 0.06 μg/ml.
(§2) The yeast cultures, maintained on Sabouraud dextrose agar were transferred to YM broth (Difco) and incubated overnight at 35° C. with shaking (250 rpm). After incubation, each culture was diluted in sterile water to yield a final concentration of 1-5×10^6 colony forming units (CFU)/ml.
96-well microplates were inoculated using a MIC-2000 (Dynatech) which delivers 1.5 μl per well yielding a final inoculum per well of 1.5-7.5×10^3 cells. The microplates were incubated at 35° C. for 24 hours. The minimum inhibitory concentrations (MICs) were recorded as the lowest concentrations of drug showing no visible growth.
After recording the MIC, the plates were shaken to resuspend the cells. Thereafter, 1.5 μl samples from the wells in the 96-well microplate were transferred to a single well tray containing Sabouraud dextrose agar. The inoculated trays were incubated 24 hours at 28° C. and then read. The MFC is defined as the lowest concentration of drug showing no growth or less than 4 colonies per spot. The results (three samples) are seen in the following table: ______________________________________ Minimum Fungicidal Concentration (μg/ml) Fungi Compound Compound Strain No. IA IB ______________________________________ Candida albicans MY 1055 2 1 MY 1028 2 0.5 MY 1750 4 1 Candida tropicalis MY 1012 1 0.12 Candida pseudotropicalis MY 1100 4 2 ______________________________________
(In general: Dilution methods test growth across graded concentrations, often in twofold steps.)

For another assay, the system named is Candida pseudotropicalis. Put plainly: minimum fungicidal concentration (MFC), microbroth dilution assay, Candida pseudotropicalis. Particulars: Kluyveromyces marxianus, 24 h; strain MY 1100; YNBD. Type of assay: cell-based. As for the experimental part:
as §1, §2
(§3) 96-well microplates were inoculated using a MIC-2000 (Dynatech) which delivers 1.5 μl per well yielding a final inoculum per well of 1.5-7.5×10^3 cells. […] The minimum inhibitory concentrations (MICs) were recorded as the lowest concentrations of drug showing no visible growth.
(§4) After recording the MIC, the plates were shaken to resuspend the cells. […] The inoculated trays were incubated 24 hours at 28° C. and then read. […]

The subject of another assay is Candida tropicalis. Description: minimum fungicidal concentration (MFC), microbroth dilution assay, Candida tropicalis. Type of assay: cell-based. The note with it: 24 h, strain MY 1012, YNBD. The procedure: as §1, §2, §3, §4
A further assay relates to Pneumocystis carinii. Put plainly: effectiveness against Pneumocystis carinii pneumonia in immunosuppressed rats. Type of assay: in vivo, Sprague-Dawley rats. Particulars: subcutaneously twice daily for four days; for Reduction of Cysts / Log Mean # Cysts (± SEGM): rat lung; for Log Mean # Cysts (± SEGM): * significant (t-test); for Survivors: rats. As for the experimental part: Compound I is useful for inhibiting or alleviating Pneumocystis carinii infections. In a representative study, the effectiveness of Compound I in rats were determined. Sprague-Dawley rats (weighing approximatley 250 g) were immunosuppressed with dexasone in the drinking water ([…]) and maintained on a low protein diet for 5 weeks to induce the development of Pneumocystis pneumonia from a latent infection. Before drug treatment 2 rats were sacrificed to confirm the presence of Pneumocystis carinii pneumonia (PCP); both rats had infections. The remaining rats (weighing approximately 150 g) were distributed into groups of 6 and injected twice daily for four days subcutaneously with compound in 0.25 ml of vehicle (10% DMSO in water or water). The control group of 5 rats received vehicle alone. All animals continued to receive dexasone in the drinking water and low protein diet during the drug treatment period. At the completion of treatment all animals were sacrificed, the lungs were removed and processed, and the extent of disease determined by microscopic analysis of stained slides. […] All groups were compared using the student t-test and results marked (*) are significant.

Values after ≈ are worked out from the molar mass of the structure shown. *1 amine or outer side, *2 acyl side, *3 side chain or, on linkers, in order; H or OH if unused. Where a SMILES comes first, the peptide text is derived from it. Bridges are numbered along the chain shown (N, C = ends). [ ]: non-standard residue; d: D form. The star is where a group is joined. ξ: configuration not given here. ξOrn(4,5-diOH) = O=C(C(CC(O)C(O)N[*:3])N[*:1])[*:2]; ξhTyr(βξ-OH,γξ-OH) = NC(C(=O)O)C(O)C(O)c1ccc(O)cc1; X2 = NC(=O)CC(O)C(N[*:1])C(=O)[*:2]; X3 = O=C(C1C(O)C(O)CN1[*:1])[*:2]; X1 = CCC(C)CC(C)CCCCCCCCC(=O)*; Hyp = O=C(O)[CH]1C[CH](O)CN1

In general, MFC refers to the lowest tested concentration that kills the fungus rather than only halting it. As for `CCC(C)CC(C)CCCCCCCCC(=O)NC1CC(O)C(O)NC(=O)C2CC(O)CN2C(=O)C(C(O)CC(N)=O)NC(=O)C(C(O)C(O)c2ccc(O)cc2)NC(=O)C2CC(O)CN2C(=O)C(C(C)O)NC1=O` (stereo not drawn) [Compound IA] (X1-[ξOrn(4,5-diOH)]T[Hyp][ξhTyr(βξ-OH,γξ-OH)][X2][Hyp]; lactam 1-C; configuration not given here), the MFC in the assay on Candida albicans (strain MY 1028, YNBD) came out at 2 µg/mL (≈ 1.88 µM); with Candida albicans (strain MY 1055, YNBD), 2 µg/mL (≈ 1.88 µM); in the assay with Candida albicans (strain MY 1750, YNBD), 4 µg/mL (≈ 3.76 µM); with Candida pseudotropicalis, 4 µg/mL (≈ 3.76 µM); in the assay on Candida tropicalis, 1 µg/mL (≈ 0.939 µM). The “Reduction of Cysts” value stood at 88.5% with Pneumocystis carinii (0.15 mg/kg), 94.6% with Pneumocystis carinii (0.30 mg/kg), 97.4% in the assay on Pneumocystis carinii (0.60 mg/kg) and 97.9% with Pneumocystis carinii (1.20 mg/kg). For the same compound, the “Log Mean # Cysts (± SEGM)” value in the assay on Pneumocystis carinii (0.15 mg/kg) was 6.32 ± .17; in the assay with Pneumocystis carinii (0.30 mg/kg), 5.99 ± .18; in the assay on Pneumocystis carinii (0.60 mg/kg) it was 5.68 ± .19; in the assay on Pneumocystis carinii (1.20 mg/kg) it was 5.58 ± .11. In addition, the Survivors is listed as 6/6 with Pneumocystis carinii (0.15 mg/kg), 5/6 in the assay with Pneumocystis carinii (0.30 mg/kg), 6/6 with Pneumocystis carinii (0.60 mg/kg) and 5/6 in the assay with Pneumocystis carinii (1.20 mg/kg).

As to `CCC(C)CC(C)CCCCCCCCC(=O)NC1CC(O)C(O)NC(=O)C2C(O)C(O)CN2C(=O)C(C(O)CC(N)=O)NC(=O)C(C(O)C(O)c2ccc(O)cc2)NC(=O)C2CC(O)CN2C(=O)C(C(C)O)NC1=O` (stereo not drawn) [Compound IB] (X1-[ξOrn(4,5-diOH)]T[Hyp][ξhTyr(βξ-OH,γξ-OH)][X2][X3]; lactam 1-C; configuration not given here), the MFC against Candida albicans (strain MY 1028, YNBD) is 0.5 µg/mL (≈ 0.462 µM); in the assay with Candida albicans (strain MY 1055, YNBD), 1 µg/mL (≈ 0.925 µM); against Candida albicans (strain MY 1750, YNBD) it was 1 µg/mL (≈ 0.925 µM); in the assay on Candida pseudotropicalis it was 2 µg/mL (≈ 1.85 µM); in the assay with Candida tropicalis it was 0.12 µg/mL (≈ 0.111 µM). The “Reduction of Cysts” value with Pneumocystis carinii (0.03 mg/kg) was found to be 95.0%; with Pneumocystis carinii (0.07 mg/kg), 96.8%; with Pneumocystis carinii (0.15 mg/kg), 98.7%; in the assay with Pneumocystis carinii (0.30 mg/kg) it was 99.4%; in the assay on Pneumocystis carinii (0.60 mg/kg), 99.1%. Further, the “Log Mean # Cysts (± SEGM)” value in the assay with Pneumocystis carinii (0.03 mg/kg) is reported as 6.16 ± .14; in the assay on Pneumocystis carinii (0.07 mg/kg), 5.97 ± .18; in the assay on Pneumocystis carinii (0.15 mg/kg), 5.59 ± .11; in the assay with Pneumocystis carinii (0.30 mg/kg), 5.22 ± .10; in the assay with Pneumocystis carinii (0.60 mg/kg) it was 5.41 ± .17. The Survivors in the assay with Pneumocystis carinii (0.03 mg/kg), in the assay with Pneumocystis carinii (0.07 mg/kg), in the assay on Pneumocystis carinii (0.15 mg/kg), with Pneumocystis carinii (0.30 mg/kg) and in the assay on Pneumocystis carinii (0.60 mg/kg) was 6/6 throughout.
